The values that follow come from article PMC10872270 (Cell reports, 2023).

The subject of test [1] is patients expressing AR-V7. The conditions noted are these: clinical trial; alone or in combination with PI3K inhibitor taselisib; cited from earlier work.
Test [2] relates to MDA-MB-453 xenograft. The conditions noted are these: female mice supplemented with DHT; cited from earlier work.
The test system of test [3] is AR-target genes FKBP5, STEAP4, and TMPRSS2. The test can be described thus: AR-target gene expression by real-time PCR in MDA-MB-453 cells. The note with it: 16–20 hours. It is filed as cell-based.
The test system of test [4] is UT-1355 PDX. Nature of the test: UT-1355 TNBC PDX orthotopic xenograft. It is filed as in vivo. The conditions noted are these: female NSG mice; expresses AR-FL and AR-V7.
In test [5] the test system is MDA-MB-453 tumors. Nature of the test: RNA-seq of MDA-MB-453 xenograft tumors. The format is in vivo, mice. The conditions noted are these: MDA-MB-453 xenograft tumors vs vehicle.
Test [6] deals with STAT1 phosphorylation. Nature of the test: Interferon α-induced STAT1 phosphorylation in MDA-MB-453 cells. The note with it: 3 μM pretreated for 24 hours, interferon α 30 minutes. The format is cell-based.
Test [7] deals with MDA-MB-453-AR-V7 cells. The test can be described thus: SRB proliferation assay in growth medium. The format is cell-based. The note with it: seven days. For orientation: In SRB staining, fixed cells bind dye roughly in proportion to their protein.
Test [8] deals with MDA-MB-453 cells. Nature of the test: SRB proliferation assay in growth medium. The format is cell-based. The note with it: parental MDA-MB-453 cells, seven days.
Test [9] addresses T1, AR (Homo sapiens, UniProt P10275).
T1 sequence (P10275 1-920): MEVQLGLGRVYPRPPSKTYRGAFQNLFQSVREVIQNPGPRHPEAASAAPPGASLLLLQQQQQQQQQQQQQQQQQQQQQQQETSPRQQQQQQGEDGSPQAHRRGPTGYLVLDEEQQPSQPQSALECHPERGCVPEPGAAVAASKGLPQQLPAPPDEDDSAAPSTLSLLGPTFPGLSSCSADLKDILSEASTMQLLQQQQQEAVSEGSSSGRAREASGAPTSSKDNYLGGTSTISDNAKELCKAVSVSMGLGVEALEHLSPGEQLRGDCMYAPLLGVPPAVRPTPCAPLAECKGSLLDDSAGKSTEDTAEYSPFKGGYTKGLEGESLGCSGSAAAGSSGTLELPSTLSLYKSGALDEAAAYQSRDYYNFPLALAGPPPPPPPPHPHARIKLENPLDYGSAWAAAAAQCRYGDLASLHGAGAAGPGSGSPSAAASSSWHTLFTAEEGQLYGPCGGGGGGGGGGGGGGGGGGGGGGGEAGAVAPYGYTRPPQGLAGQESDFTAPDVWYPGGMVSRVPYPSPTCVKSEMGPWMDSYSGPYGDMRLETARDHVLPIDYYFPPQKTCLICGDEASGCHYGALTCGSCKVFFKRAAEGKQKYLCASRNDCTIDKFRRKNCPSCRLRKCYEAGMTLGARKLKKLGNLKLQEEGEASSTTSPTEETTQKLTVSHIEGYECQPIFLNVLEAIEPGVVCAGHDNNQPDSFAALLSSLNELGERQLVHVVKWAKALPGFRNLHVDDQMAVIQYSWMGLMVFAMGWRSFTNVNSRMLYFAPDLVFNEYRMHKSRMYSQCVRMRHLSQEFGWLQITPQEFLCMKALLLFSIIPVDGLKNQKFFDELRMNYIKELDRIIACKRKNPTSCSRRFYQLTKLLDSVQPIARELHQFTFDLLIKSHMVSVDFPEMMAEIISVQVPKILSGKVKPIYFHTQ
The conditions noted are these: HEK-293 cells.

Test [10] relates to FKBP5. The test can be described thus: R1881-induced FKBP5 expression in MDA-MB-453 cells. The conditions noted are these: 0.1 nM R1881, 3 μM, 24 hours.

As to `CNC(=O)c1ccc(N2C(=S)N(c3ccc(C#N)c(C(F)(F)F)c3)C(=O)C2(C)C)cc1F` [enzalutamide], the “effect in patients expressing AR-V7” value in [1] is given as “failed to have an effect”. The MDA-MB-453 xenograft growth entry in test [2] is given as “inhibits”. In test [3], the “R1881-stimulated expression of FKBP5” value is listed as “inhibited”, the “R1881-stimulated expression of STEAP4” value is reported as “inhibited” and the “R1881-stimulated expression of TMPRSS2” value is on record as “inhibited”. Besides, in test [4], the “growth of UT-1355 PDX” value is listed as “modestly effective”. In addition, the “differentially expressed genes in treated tumors” value in test [5] was “eight”.
Turning to `N#CC[C@H](C1CCCC1)n1cc(-c2ncnc3[nH]ccc23)cn1` [ruxolitinib], the “interferon-α-induced phosphorylation of STAT1” value in test [6] is given as “completely inhibited”. In addition, the cell proliferation entry in test [7] and in test [8] was “comparable inhibition” each time. Also, the “R1881-dependent AR transactivation in the absence of STAT1” value in test [9] is on record as “no effect”. Moreover, in test [9] (0.1 μg STAT1), the “STAT1-dependent increase in AR transactivation” value was “inhibited”. Moreover, the “R1881-induced expression of FKBP5” value in test [10] is “completely inhibited”.
